# According to PubChem BioAssay (NCI):
#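 Briefly, cells in 96-well plates were exposed to five compound concentrations for 48 h, and endpoints were estimated by linear interpolation. At the TGI there is no net growth.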
# Key:
# Assay in all cases: DTP human tumour cell line panel, 48 h
# [1] = test system: SF-268 CNS
# [2] = test system: HOP-92 NSCLC
# [3] = test system: LOX IMVI melanoma
# [4] = test system: OVCAR-8 ovarian
# [5] = test system: OVCAR-3 ovarian
# [6] = test system: MDA-N
# [7] = test system: SR leukemia
# [8] = test system: SNB-75 CNS
# [9] = test system: DU-145 prostate
# [10] = test system: T-47D breast
# [11] = test system: NCI-H460 lung
# [12] = test system: NCI/ADR-RES ovarian
# [13] = test system: NCI-H522 lung
# [14] = test system: HL-60(TB) leukemia
# [15] = test system: MALME-3M melanoma
# [16] = test system: SN12C renal
# [17] = test system: BT-549 breast
# [18] = test system: HCT-116 colon
# [19] = test system: SNB-19 CNS
# [20] = test system: KM12 colon
# [21] = test system: COLO 205 colon
# [22] = test system: HS 578T breast
# [23] = test system: MOLT-4 leukemia
# [24] = test system: M14 melanoma
# [25] = test system: HCC-2998 colon
# [26] = test system: RPMI-8226 leukemia
# [27] = test system: HCT-15 colon
# [28] = test system: CCRF-CEM leukemia
# [29] = test system: NCI-H23 lung
# [30] = test system: UACC-62 melanoma
# [31] = test system: MDA-MB-435
# [32] = test system: SF-295 CNS
# [33] = test system: SK-MEL-2 melanoma
# [34] = test system: UO-31 renal
# [35] = test system: HT29 colon
# [36] = test system: K-562 leukemia
# [37] = test system: MDA-MB-231 breast
# [38] = test system: HOP-62 NSCLC
# [39] = test system: SF-539 CNS
# [40] = test system: NCI-H226 lung
# [41] = test system: IGROV1 ovarian
# [42] = test system: CAKI-1 renal
# [43] = test system: SK-MEL-28 melanoma
# [44] = test system: 786-0 renal
# [45] = test system: OVCAR-5 ovarian
# [46] = test system: U251 CNS
# [47] = test system: TK-10 renal
# [48] = test system: A549 NSCLC
# [49] = test system: EKVX NSCLC
# [50] = test system: ACHN renal
# [51] = test system: RXF 393 renal
# [52] = test system: UACC-257 melanoma
# [53] = test system: MCF7 breast
# [54] = test system: SK-MEL-5 melanoma
# [55] = test system: SW-620 colon
# [56] = test system: OVCAR-4 ovarian
# [57] = test system: PC-3 prostate
# [58] = test system: A498 renal
# [59] = test system: SK-OV-3 ovarian
compound,measurement,setting,value
CCCCC(=O)c1c(O)ccc2c(C)cc(=O)oc12,TGI,[1],> 100 µM
same,TGI,[2],> 100 µM
same,TGI,[3],> 100 µM
same,TGI,[4],> 100 µM
same,TGI,[5],> 100 µM
same,TGI,[6],> 100 µM
same,TGI,[7],> 100 µM
same,TGI,[8],> 100 µM
same,TGI,[9],> 100 µM
same,TGI,[10],51.4 µM
same,TGI,[11],> 100 µM
same,TGI,[12],> 100 µM
same,TGI,[13],> 100 µM
same,TGI,[14],> 100 µM
same,TGI,[15],> 100 µM
same,TGI,[16],> 100 µM
same,TGI,[17],> 100 µM
same,TGI,[18],> 100 µM
same,TGI,[19],> 100 µM
same,TGI,[20],> 100 µM
same,TGI,[21],> 100 µM
same,TGI,[22],> 100 µM
same,TGI,[23],> 100 µM
same,TGI,[24],> 100 µM
same,TGI,[25],> 100 µM
same,TGI,[26],> 100 µM
same,TGI,[27],> 100 µM
same,TGI,[28],> 100 µM
same,TGI,[29],> 100 µM
same,TGI,[30],> 100 µM
same,TGI,[31],> 100 µM
same,TGI,[32],> 100 µM
same,TGI,[33],> 100 µM
same,TGI,[34],> 100 µM
same,TGI,[35],> 100 µM
same,TGI,[36],> 100 µM
same,TGI,[37],> 100 µM
same,TGI,[38],> 100 µM
same,TGI,[39],> 100 µM
same,TGI,[40],> 100 µM
same,TGI,[41],> 100 µM
same,TGI,[42],> 100 µM
same,TGI,[43],> 100 µM
same,TGI,[44],> 100 µM
same,TGI,[45],> 100 µM
same,TGI,[46],> 100 µM
same,TGI,[47],> 100 µM
same,TGI,[48],> 100 µM
same,TGI,[49],> 100 µM
same,TGI,[50],> 100 µM
same,TGI,[51],> 100 µM
same,TGI,[52],> 100 µM
same,TGI,[53],> 100 µM
same,TGI,[54],> 100 µM
same,TGI,[55],> 100 µM
same,TGI,[56],> 100 µM
same,TGI,[57],> 100 µM
same,TGI,[58],> 100 µM
CCc1[nH]nc(C(N)=O)c1N=NN(C)C,TGI,[1],> 100 µM
same,TGI,[2],> 100 µM
same,TGI,[3],> 100 µM
same,TGI,[4],> 100 µM
same,TGI,[5],> 100 µM
same,TGI,[6],> 100 µM
same,TGI,[7],38.9 µM
same,TGI,[8],> 100 µM
same,TGI,[9],> 100 µM
same,TGI,[10],> 100 µM
same,TGI,[12],> 100 µM
same,TGI,[13],> 100 µM
same,TGI,[14],> 100 µM
same,TGI,[15],> 100 µM
same,TGI,[16],> 100 µM
same,TGI,[17],> 100 µM
same,TGI,[18],> 100 µM
same,TGI,[19],> 100 µM
same,TGI,[20],> 100 µM
same,TGI,[21],> 100 µM
same,TGI,[22],> 100 µM
same,TGI,[23],41.6 µM
same,TGI,[24],> 100 µM
same,TGI,[25],> 100 µM
same,TGI,[26],> 100 µM
same,TGI,[27],> 100 µM
same,TGI,[28],> 100 µM
same,TGI,[29],> 100 µM
same,TGI,[30],> 100 µM
same,TGI,[31],> 100 µM
same,TGI,[32],> 100 µM
same,TGI,[33],> 100 µM
same,TGI,[34],> 100 µM
same,TGI,[59],> 100 µM
same,TGI,[35],> 100 µM
same,TGI,[36],66.7 µM
same,TGI,[37],> 100 µM
same,TGI,[38],> 100 µM
same,TGI,[39],> 100 µM
same,TGI,[40],> 100 µM
same,TGI,[41],> 100 µM
same,TGI,[42],> 100 µM
same,TGI,[43],> 100 µM
same,TGI,[44],> 100 µM
same,TGI,[46],> 100 µM
same,TGI,[47],> 100 µM
same,TGI,[48],> 100 µM
same,TGI,[49],> 100 µM
same,TGI,[50],> 100 µM
same,TGI,[51],> 100 µM
same,TGI,[52],> 100 µM
same,TGI,[53],> 100 µM
same,TGI,[54],> 100 µM
same,TGI,[55],> 100 µM
same,TGI,[56],> 100 µM
same,TGI,[57],> 100 µM
same,TGI,[58],> 100 µM
